PubChem BioAssay (NCI)
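A five-concentration, 48-hour dose response in 96-well plates underlies each endpoint, interpolated linearly between surrounding concentrations. TGI: total growth inhibition.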

Tests used:
Assay in all cases: NCI anticancer screen, dose series, 48 h
MDA-N = tested on: MDA-N
OVCAR-3 ovarian = tested on: OVCAR-3 ovarian
SF-539 CNS = tested on: SF-539 CNS
RPMI-8226 leukemia = tested on: RPMI-8226 leukemia
HCT-116 colon = tested on: HCT-116 colon
SN12C renal = tested on: SN12C renal
U251 CNS = tested on: U251 CNS
HT29 colon = tested on: HT29 colon
BT-549 breast = tested on: BT-549 breast
NCI-H226 lung = tested on: NCI-H226 lung
M14 melanoma = tested on: M14 melanoma
MDA-MB-435 = tested on: MDA-MB-435
786-0 renal = tested on: 786-0 renal
UO-31 renal = tested on: UO-31 renal
COLO 205 colon = tested on: COLO 205 colon
CAKI-1 renal = tested on: CAKI-1 renal
T-47D breast = tested on: T-47D breast
NCI-H23 lung = tested on: NCI-H23 lung
ACHN renal = tested on: ACHN renal
SK-MEL-5 melanoma = tested on: SK-MEL-5 melanoma

SMILES | TGI (MDA-N) | TGI (OVCAR-3 ovarian) | TGI (SF-539 CNS) | TGI (RPMI-8226 leukemia) | TGI (HCT-116 colon) | TGI (SN12C renal) | TGI (U251 CNS) | TGI (HT29 colon) | TGI (BT-549 breast) | TGI (NCI-H226 lung) | TGI (M14 melanoma) | TGI (MDA-MB-435) | TGI (786-0 renal) | TGI (UO-31 renal) | TGI (COLO 205 colon) | TGI (CAKI-1 renal) | TGI (T-47D breast) | TGI (NCI-H23 lung) | TGI (ACHN renal) | TGI (SK-MEL-5 melanoma)
CCOC(=O)CCC(NC(=O)N1CCN(c2c(C)nc(C)[nH]c2=O)CC1)C(=O)OCC (stereo not drawn) | > 100 µM | > 100 µM | > 100 µM | > 100 µM | > 100 µM | > 100 µM | > 100 µM | > 100 µM | > 100 µM | > 100 µM | > 100 µM | > 100 µM | > 100 µM | > 100 µM | > 100 µM | > 100 µM | > 100 µM | > 100 µM | > 100 µM | 
NC(=S)SC1=NNC2(C(=O)N1)c1ccccc1-c1ccccc12 | > 10 µM |  | > 10 µM | > 10 µM | > 10 µM | > 10 µM |  | > 10 µM | > 10 µM | > 10 µM | > 10 µM | > 10 µM | > 10 µM | > 10 µM | > 10 µM | > 10 µM | > 10 µM | > 10 µM | > 10 µM | > 10 µM
Nc1ccc(-c2nc3cc(F)ccc3s2)cc1Br | > 100 µM | > 100 µM | > 71.4 µM | > 100 µM | > 100 µM | > 100 µM | 57.8 µM | > 100 µM | > 74.1 µM |  | > 100 µM | > 100 µM | > 100 µM | > 100 µM | > 100 µM | > 100 µM | > 100 µM |  | > 100 µM | > 100 µM
N#Cc1cc2c(n(C3OC(CO)C(O)C(O)C3O)c1=S)CCCCC2 (stereo not drawn) | > 100 µM | > 100 µM | > 100 µM | > 100 µM | > 100 µM | > 100 µM | > 100 µM | > 100 µM | > 100 µM | > 100 µM | > 100 µM | > 100 µM | > 100 µM | > 100 µM | > 100 µM | > 100 µM |  | > 100 µM | > 100 µM | > 100 µM
CC(C)N(CCCNc1c2ccccc2nc2cccc([N+](=O)[O-])c12)C(C)C | < 0.01 µM |  | < 0.0437 µM | < 0.0192 µM | 0.391 µM |  | < 0.0365 µM | 0.0935 µM | < 0.0442 µM | 0.325 µM | < 0.01 µM | < 0.018 µM | 0.155 µM |  | < 0.015 µM | 0.593 µM |  | < 0.0183 µM | < 0.0301 µM | < 0.0156 µM
COc1cc(S(=O)(=O)N/N=C/C=C/c2ccccc2)c(OC)cc1NC(C)=O | > 100 µM | > 100 µM | 81.7 µM | 60.9 µM | > 100 µM | > 100 µM |  | > 100 µM | > 100 µM |  | > 100 µM | > 100 µM | > 100 µM | > 100 µM | 45.8 µM | > 100 µM | > 100 µM | > 100 µM | > 100 µM | 33.3 µM
CSc1c(C#N)c(O)n(-c2ccc(Cl)cc2)c(=O)c1C#N | > 100 µM | > 100 µM | > 100 µM | > 100 µM | > 100 µM | > 100 µM | > 100 µM | > 100 µM | > 100 µM | > 100 µM | > 100 µM | > 100 µM | > 100 µM | > 100 µM | > 100 µM | > 100 µM | > 100 µM | > 100 µM |  | > 100 µM
C/C(=N\N=C(\N)OB(F)F)c1ccccn1 | > 100 µM | > 100 µM | > 100 µM |  | > 100 µM | > 100 µM | > 100 µM | > 100 µM | > 100 µM | > 100 µM | > 100 µM | > 100 µM | > 100 µM | > 100 µM | > 100 µM | > 100 µM | > 100 µM | > 100 µM | > 100 µM | > 100 µM
O=C(c1ccsc1)c1cc2c(s1)C(=O)c1ccsc1C2=O | 0.0512 µM | 0.392 µM | 0.138 µM |  | 0.468 µM | 0.125 µM | 0.34 µM | 4.08 µM | 0.198 µM | 1.11 µM | 0.247 µM | 0.0696 µM | 0.356 µM | 0.25 µM | 2.97 µM | 1.57 µM | 0.675 µM | 0.308 µM | 0.241 µM | 0.104 µM
CN(C)S(=O)(=O)n1ccnc1 | > 100 µM | > 100 µM | > 100 µM | > 100 µM | > 100 µM | > 100 µM | > 100 µM |  | > 100 µM | > 100 µM | > 100 µM | > 100 µM | > 100 µM | > 100 µM | > 100 µM | > 100 µM | > 100 µM | > 100 µM | > 100 µM | > 100 µM
COc1cccc2c3cccc(OC)c3c3[nH]cnc3c12 | 3.34 µM | 31.7 µM | 2.68 µM | 5.67 µM | 3.1 µM | 22.3 µM | 3.03 µM | 3 µM | 31.6 µM | 32.7 µM | 3.08 µM | 4.1 µM | 2.98 µM | 3.02 µM | 30.1 µM | 37.9 µM | 40.2 µM | 3.37 µM | 22.4 µM | 
CCC(C)[C@H]1C(=O)N=C(N)N1C(=O)OCc1ccccc1 (stereo partly drawn) | > 100 µM | > 100 µM |  | > 100 µM | > 100 µM | > 100 µM | > 100 µM | > 100 µM | > 100 µM | > 100 µM |  | > 100 µM | > 100 µM | > 100 µM | > 100 µM | > 100 µM |  | > 100 µM | > 100 µM | > 100 µM
NS(=O)(=O)c1cc(S(N)(=O)=O)c(NC(=O)Nc2ccc(Cl)c(Cl)c2)c(Cl)c1Cl | > 100 µM | > 100 µM |  | > 100 µM | > 100 µM | > 100 µM | > 100 µM | > 100 µM | > 100 µM | > 100 µM | > 100 µM | > 100 µM | > 100 µM | > 100 µM | > 100 µM | > 100 µM |  | > 100 µM | > 100 µM | > 100 µM
